The subject of one experiment is Lepr db (db/db) mice. The experiment in a line: GTT in db/db mice. It is filed as in vivo, mouse. Here is the method:
Male C57BL/6NTac mice (Taconic, Ejby, Denmark) at 8–9 weeks of age were acclimatised for 1 week on a normal chow diet, then changed to a high-fat diet for 2 weeks (diet-induced obesity; DIO), followed by GTT as indicated. Male Lepr^db (db/db) mice on a BKS background (Taconic) at 5 weeks of age were maintained on a normal chow diet and GTTs were performed at 5.5 and 14 weeks of age as indicated. Blood glucose levels were measured in fresh blood (C57: OneTouch Ultra2, Lifescan, Milpitas, CA, USA; db/db: GlucoSmart Swing, MSP bodmann, Bobingen, Germany) and insulin levels were assayed in serum using ELISA (Mercodia) at the times indicated in ESM Fig. 2. See ESM Methods for more details.
Fig. 4 Acute treatment with RG54 improves glucose tolerance during GTTs in three models of type 2 diabetes. Male C57Bl/6 mice fed a high-fat diet for 2 weeks (a–d) or db/db mice at 5.5 (e–h) or 14 (i–l) weeks old were fasted overnight, then treated with a single i.p. injection of NaCl (negative control, 200 μl; C57, n=12; db/db 5.5 weeks, n=6; db/db 14 weeks, n=6), liraglutide (0.1 mg/kg; C57, n=11; db/db 5.5 weeks, n=6; db/db 14 weeks, n=6), ApoA-I (14 mg/kg; C57, n=12; db/db 5.5 weeks, n=6; db/db 14 weeks, n=6) or RG54 (12 mg/kg; C57, n=12; db/db 5.5 weeks, n=6; db/db 14 weeks, n=5). After a further 3 h, mice received an i.p. glucose load (40 mg/mouse for C57; 50 mg/mouse for db/db) followed by blood and plasma collection at the indicated times, and blood glucose (a,e,i) and plasma insulin (b,f,j) concentrations were determined. Total AUC was calculated (mmol/l × min for glucose, pmol/l × min for insulin) and then normalised to the average value of the relevant NaCl control group to give relative AUC (% control) for glucose (c,g,k) and insulin (d,h,l). Values are means ± SEM. *p≤0.05, **p≤0.01, ***p≤0.001 vs NaCl control […]
We next used type 2 diabetes models with a more advanced phenotype: db/db mice at 5.5 and 14 weeks of age.
At 14 weeks of age, mice were markedly obese with a mean ± SEM body weight of 55.3 ± 0.6 g. […] One mouse was excluded from RG54 treatment group because of very high residual insulin secretion prior to the experiment.
Male C57BL/6NTac mice were purchased from Taconic (Ejby, Denmark) at 8-9 weeks of age, acclimatised for one week on normal chow diet, then changed to a High-Fat Diet (HFD; Research Diets D12492, 60% fat content) for 2 weeks, followed by glucose tolerance testing (GTT) with timings as indicated (ESM Figure 2). Male Leprdb mice (db/db) on BKS background purchased from Taconic (BKS.Cg-m+/+Leprdb/BomTac, Ejby, Denmark) at 5 weeks of age were maintained on normal chow diet and GTTs were performed at 5.5 and 14 weeks of age with timings as indicated (ESM Figure 2). For the GTTs, mice fasted overnight (9 h) were injected with the appropriate treatment, and after an additional 3 h given ip glucose (C57: 40 mg/mouse; db/db: 50 mg/mouse) followed by collection of serum samples at the indicated times. Blood glucose levels were measured in fresh blood (C57: OnetouchUltra2, Lifescan; db/db: GlucoSmart Swing, MSP bodmann) and insulin levels were assayed in serum using ELISA (Mercodia). db/db mice were independently randomized to treatments groups for GTT at each time point as no carry over was expected between experiments due to the acute nature of the treatment effects. Primary outcomes were blood glucose and insulin measurements during the GTT. C57BL/6NTac mice were euthanized immediately after each experiment whereas db/db were euthanized immediately after the GTT at 14 weeks of age. […]
and reproducible clinical symptoms of diabetes than females in these models [5; 6] thus ensuring the reproducibility of clinical symptoms between animals within the study. […]

Experiment [1] can be described thus: rHDL formation, particle size by DLS. The settings on record: 1:100 protein:lipid molar ratio, extruded 100 nm MLVs, 4 days (96 h), 24°C. Here is the method: 1,2-dimyristoyl-sn-glycero-3-phosphocholine (DMPC; Avanti Polar Lipids, Alabaster, AL, USA) was formed into 100 nm multilamellar vesicles (MLV) via extrusion using the LiposoFast system (Avestin, Ottawa, ON, Canada) as previously described. MLV were incubated with RG54 or ApoA-I at the indicated ratios for 4 days at 24°C to form rHDL. The resulting particle sizes were measured by dynamic light scattering (DLS) using a Zetasizer APS (Malvern Instruments, Uppsala, Sweden).
The reduced initial rate may be due to a more complex binding pattern of the larger number of RG54 peptides needed per formed particle: four to five RG54 molecules (54 amino acids each) are needed to make up the size of full-length ApoA-I (243 amino acids). A qualitative assessment of particle formation was therefore next used to evaluate and compare the sizes of formed rHDL. The hydrodynamic diameters of lipid–protein complexes formed after extended incubation (96 h) of RG54 or ApoA-I with extruded 100 nm MLVs were estimated using DLS.
ESM Figure 4. Lipid clearance and peptide-lipid complex formation activity of RG54 compared with full-length ApoA-I. […]

Setting [2] is: db/db 5.5 weeks, 3 h treatment, i.p.

No end group written: not given here.

Regarding “Ac-AEYHAKATEHLSTLSEKAKPALEDLRQGLLPVLESFKVSFLSALEEYTKKLNTQ [RG54]”, in the experiment on Lepr db (db/db) mice (setting [2]), the fasting glucose levels result is given as “significantly lowered”, the fasting insulin secretion entry is recorded as “no significant changes” and the “insulin sensitivity as measured by QUICKI” value is “no concomitant change”. Moreover, the “glucose AUC” value with Lepr db (db/db) mice (db/db 14 weeks, RG54 12 mg/kg i.p., n=5, vs NaCl) is “no significant change”. In addition, in experiment [1], the “lipid-protein complexes formed (DLS frequency plots)” value is “single peaks corresponding to rHDL particles”.

The record behind these values is article PMC6560211, “ApoAI-derived peptide increases glucose tolerance and prevents formation of atherosclerosis in mice” (Diabetologia, 2019).
